Assay results taken from patent US7169769B2, “17α-hydroxy-14β-steroids with hormonal effect” (Akzo Nobel N.V., priority 2001, dated 2007).

Assays:
[1] = reported in Heusser et al Helv Chim Acta Vol 22, 1949; cited from earlier work
[2] = target: T1, human androgen receptor (hAR) (Homo sapiens, UniProt P10275); assay: Transactivative androgen activity in CHO cells transfected with hAR and MMTV-luciferase reporter, compared with 5α-dihydrotestosterone; assay type: cell-based; parameters: concentration or dose not given beside the values; settings: incubation 16 h, 37° C., compared with the activity of 5α-dihydrotestosterone
T1 construct: expressed in transfected cells; host or cells: Chinese hamster ovary cells (CHO)
T1 sequence (P10275 1-920): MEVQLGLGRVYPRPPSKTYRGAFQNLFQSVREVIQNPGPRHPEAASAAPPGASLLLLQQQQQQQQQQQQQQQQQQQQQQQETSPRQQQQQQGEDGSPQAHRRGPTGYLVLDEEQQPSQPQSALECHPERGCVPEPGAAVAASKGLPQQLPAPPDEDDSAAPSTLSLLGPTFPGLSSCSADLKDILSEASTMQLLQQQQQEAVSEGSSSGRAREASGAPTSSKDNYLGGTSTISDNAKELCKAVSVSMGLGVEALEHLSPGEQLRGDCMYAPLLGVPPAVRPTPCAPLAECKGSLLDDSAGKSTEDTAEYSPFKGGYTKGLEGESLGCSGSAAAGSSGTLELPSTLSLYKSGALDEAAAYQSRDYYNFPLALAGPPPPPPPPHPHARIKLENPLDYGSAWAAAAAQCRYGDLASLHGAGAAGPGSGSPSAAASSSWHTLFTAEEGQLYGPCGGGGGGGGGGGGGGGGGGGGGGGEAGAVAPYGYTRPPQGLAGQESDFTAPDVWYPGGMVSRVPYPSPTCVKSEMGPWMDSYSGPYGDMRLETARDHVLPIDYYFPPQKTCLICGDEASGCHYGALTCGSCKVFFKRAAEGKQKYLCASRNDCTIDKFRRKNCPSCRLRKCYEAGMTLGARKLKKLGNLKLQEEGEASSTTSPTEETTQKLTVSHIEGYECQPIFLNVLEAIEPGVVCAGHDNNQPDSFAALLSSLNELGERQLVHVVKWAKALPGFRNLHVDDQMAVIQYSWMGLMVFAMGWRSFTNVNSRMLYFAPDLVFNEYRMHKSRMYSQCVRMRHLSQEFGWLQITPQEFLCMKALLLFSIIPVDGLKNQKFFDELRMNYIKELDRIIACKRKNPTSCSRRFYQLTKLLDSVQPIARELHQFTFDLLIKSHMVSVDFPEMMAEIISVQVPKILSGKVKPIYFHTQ
Procedure: The transactivative androgen activity of the compounds of the invention was measured in Chinese hamster ovary cells (CHO) transfected with the human androgen receptor (hAR), in combination with a mouse mammary tumor virus (MMTV), and luciferase […] gene (incubation time 16 h, temperature 37° C.) and compared with the activity of 5α-dihydrotestosterone [Schoonen, W. G. E. J.; de Ries, R. J. H.; Joosten, J. W. H.; Mathijssen-Mommers, G. J. W.; Kloosterboer, H. J., Analyt. Biochem. 261, 222–224 (1998)].

human hepatocytes = assay: Determination of t1/2 (metabolic stability) after incubation with human hepatocytes; assay type: in vitro ADME; settings: 100 nM compound, 0.5, 1 and 2 h, class relative to 17α-methyltestosterone and testosterone; for t1/2 Bioassay: supernatant analysed by androgenic activity bioassay (example 6)
Procedure: The half-life of a compound as a result of contact with human hepatocytes holds as a reliable indication of metabolic stability. As it is well known that the absorption of this class of steroids is high, this assay provides an in vitro model for oral activity in humans.
Hepatocytes collected from healthy young (25–45 year) male organ donors were cryo preserved in liquid nitrogen and kept there until use. They were thawed at 37° C. in a waterbath, placed immediately on ice, washed twice in one volume of cold (4° C.) incubation medium [William's medium E (without phenol red) with Glutamax I®, gentamicin 50 μg/ml, insulin 1 μM, fetal calf serum 0% (v/v)], counted and the viability checked by Trypan blue exclusion. Cells were incubated as suspensions in 96-wells (non-coated) plates at a nominal density of 3×10^4 cells/well in 300 μl medium at 37° C. with an air/CO2 mixture (95/5).
The hepatocytes were incubated with 100 nM final concentration of the compound to be tested. The incubations were stopped after 0.5, 1 and 2 h by centrifugation at 200 g. The supernatant was collected for liquid chromatography coupled to immediate mass spectroscopic analysis (LC-MS/MS analysis) and for bioassay. For the latter 10 μl was used for determination of the androgenic activity. The androgenicity was determined as described at example 6. The final compound concentration for determination of androgenic activity was 1 nmol/l.
The metabolic stability (t1/2) of the compounds of the invention were classified according to the following scheme: • (+++) metabolic stability>17α-methyltestosterone (MT) • (++) 17α-methyltestosterone>metabolic stability>80% of 17α-methyltestosterone • (+) 80% of 17α-methyltestosterone>metabolic stability>testosterone • (−) metabolic stability<testosterone Results are collected in Table 1.

Row | SMILES | androgenic activity [1] | Androgen activity (%) [2] [%] | t1/2 LC-MS/MS (human hepatocytes; supernatant analysed by LC-MS/MS) | t1/2 Bioassay (human hepatocytes)
1 | C[C@]12CC[C@H]3[C@@H](CCC4=CC(=O)CC[C@@]43C)[C@H]1CC[C@H]2O [17α-hydroxy-14β-testosterone] | no androgenic activity | – | – | –
2 | C[C@@H]1CC2=CC(=O)CC[C@@H]2[C@H]2CC[C@]3(C)[C@H](O)[C@@H](C)C[C@@H]3[C@@H]21 [Example 1, (7α,14β,16β,17α)-17-Hydroxy-7,16-dimethylestr-4-en-3-one] | – | 99.0 | (+ +) | (+ +)
3 | C[C@@H]1CC2=CC(=O)CC[C@@H]2[C@H]2CC[C@]3(C)[C@H](O)[C@H](C)C[C@@H]3[C@@H]21 [Example 2, (7α,14β,16α,17α)-17-Hydroxy-7,16-dimethylestr-4-en-3-one] | – | 38.7 | – | (+ +)
4 | C[C@@H]1CC2=CC(=O)CC[C@@H]2[C@H]2CC[C@@]3(C)[C@H](CC(C)(C)[C@H]3O)[C@@H]21 [Example 3, (7α,14β,17α)-17-hydroxy-7,16,16-trimethylestr-4-en-3-one] | – | 78.5 | – | –
5 | CC[C@H]1C[C@@H]2[C@H]3[C@H](CC[C@]2(C)[C@@H]1O)[C@H]1CCC(=O)C=C1C[C@H]3C [Example 4a, (7α,14β,16β,17α)-16-Ethyl-17-hydroxy-7-methylestr-4-en-3-one] | – | 20.0 | – | –
6 | CC[C@@]1(C)C[C@@H]2[C@H]3[C@H](CC[C@]2(C)[C@@H]1O)[C@H]1CCC(=O)C=C1C[C@H]3C [Example 4b, (7α,14β,16β,17α)-16-Ethyl-17-hydroxy-7,16-dimethylestr-4-en-3-one] | – | 24.0 | – | –
7 | C[C@@H]1CC2=CC(=O)CC[C@@H]2[C@H]2CC[C@]3(C)[C@H](O)CC[C@@H]3[C@@H]21 [Ref. comp. 2, (7α,14β,17α)-17-Hydroxy-7-methylestr-4-en-3-one, reference compound] | – | 60.5 | – | –
